Values joined by “and” are separate entries in the source; they are usually repeats but may differ in a detail not shown here. Identical values can stand only once. “Also recorded” adds a separate entry of the source.
How the values were obtained:
Solubility in solvents = format: physicochemical
[1] = Absorption and fluorescence spectroscopy; format: physicochemical; details: for absorbance intensity after 30 min relative to that measured at 1 min: 10 μM in H2O
Protocol: (§1) Photophysical study. For the absorption and fluorescence spectroscopy, we prepared a stock solution with concentration of 1 mM oligomer and 10% v/v solution of DMSO in H2O. 30 μL of the sonicated suspension of each EO-OPE-1 was diluted into 3 mL solution in a quartz cuvette to give a concentration of 10 μM. Absorption and fluorescence were performed on plate reader (SpectroMax M-5 microplate reader, Molecular Devices) at 24° C. Transient absorption spectra were recorded for EO-OPE-1 samples in both methanol and water. Transient absorption spectra were collected using laser systems that are described elsewhere 1, 2. The optical density was adjusted to 0.7 at the excitation wavelength (355 nm) with the laser energy being 6-7 mJ. Solutions were purged with argon for […] before making transient absorption spectroscopy measurements.

[2] = Transient absorption spectroscopy (triplet state); format: physicochemical
Protocol: as §1
Singlet oxygen generation. Excited triplet state (ETS) plays an essential role in the generation of ROS and 1O2. […] Another important point to note is that all members of EO-OPE-1 series underwent fast photobleaching in water during TA experiments (approximately 40-50% reduction in signal intensity). To minimize the error due to photobleaching, fresh samples were prepared and used in each run. […] On the other hand, the triplet lifetimes for EO-OPE-1(C3, A), EO-OPE-1 (C2, A), EO-OPE-1 (C3, S), and EO-OPE-1 (Th, C3, A) are 5.2 μs, 17.9 μs, 18.7 μs, and 7.2 μs, respectively. Based on the above discussions, we would expect C will give a higher yield of 1O2, with lower yields for EO-OPE-1 (C2, A), EO-OPE-1(C3, A), and EO-OPE-1 (C3, S).

[3] = test system: E.coli, S.epidermis, and S.aureus; test: Dead/live assays, biocidal activity stated without singling out a bacterium; format: cell-based; details: UV irradiation
Protocol: (§2) Dead/live assays were performed to test the biocidal activity of EO-OPE-1(C3, A), EO-OPE-1 (C2, A), EO-OPE-1 (C3, S) and EO-OPE-1 (Th, C3, A) against E.coli, S.epidermis, and S.aureus. E.coli, S.epidermis, and S.aureus were cultured in 50 mL of Difco™ Nutrient broth (LOT 4057492, Becton, Dickinson and Company, Sparks, Md. 21152 USA), Difco™ Nutrient broth (LOT 4057492, Becton, Dickinson and Company, Sparks, Md. 21152 USA), and BBL™ Brain Heart Infusion (LOT 8263271, Becton, Dickinson and Company, Sparks, Md. 21152 USA), respectively, for 18 h at 37° C. under shaking. The bacteria were collected by centrifuging 50 mL of culture at 4,000 rpm in an Eppendorf centrifuge for 15 min at 4° C. The pellet was re-suspended with the assistance of vortex in 25 mL of 0.85% NaCl solution and repelleted. The wash cycle was repeated twice. Bacterial concentrations were measured and normalized using a disposal hemocytometer (INCYTO Co., Ltd), counts being 2.5˜3.0×10^7/mL. The diluted bacteria suspension was added to 1.5 mL of black and transparent microtubes in aliquots of 500 μL for dark and light samples, respectively. Three groups of live controls were prepared with cells suspended in black microtubes, transparent microtubes, and quartz cuvettes at the same concentrations, but without chemicals. These bacteria samples were titrated by OPEs with various concentrations followed by staying in dark for dark samples/controls and exposing to UV irradiation in a photoreactor chamber for light samples/controls with certain duration.
(§3) Dead/live assays were carried out using two sets of stains: SYTO 9/Propidium iodide for E.coli and SYTO 24/Propidium iodide for S.epidermis and S.aureus. SYTO 9 and SYTO 24 are cell membrane permeant nucleic acid stains with green (˜498 nm for SYTO 9 and ˜515 nm for SYTO 24) fluorescence and used to stain both live and dead cells; Propidium iodide is a red-fluorescent nucleic acid stain that is membrane impermeable to viable cells but stains DNA or RNA of dead cells with comprised membranes and emits red (˜617 nm) fluorescence, indicating cell death. Upon the completion of the above treatment, a 1 to 1 ratio mixture of the two dyes was prepared and added into the samples (2.4 μL mixed dyes for 500 μL suspension) and incubated for 15 minutes in the dark. Bacteria were then examined under a 40× oil objective on a Zeiss LSM 510 Meta confocal laser scanning microscope and an Accuri C6 flow cytometer to identify and quantify those live and dead bacteria.

bacteriophage MS2 = test: Phage inactivation, phage titer (PFU), MS2; format: cell-based; details: 10 ug/ml, UV-light, 1 hour
Protocol: (§4) Bacteriophage Preparation and Titer. E. coli cells were grown in the standard Luria broth. The fresh E. coli culture was inoculated from an overnight culture followed by approximately three hours incubation at 37° C. to the exponential growth phase (O.D.600˜0.5). At this growth phase, the E. coli cells were collected by centrifuge and washed with Escherichia coli minimal medium (Glucose 5 g/L, Na2HPO4 6 g/L, KH2PO4 3 g/L, NH4Cl 1 g/L, NaCl 0.5 g/L, MgSO4, 0.12 g/L, CaCl2 0.01 g/L, pH 7.2) twice. The cell pellet was resuspended with minimal medium. The phage stock solutions were added into their corresponding bacterial host suspensions the phage-bacteria mixture incubated for 15 minutes at 37° C. for infection. The phage-bacteria mixture was transferred into fresh Escherichia coli minimal medium and incubated overnight for viral replication. […] The phage titer was determined by plaque forming units (PFU). […] After 6˜8 hours incubation, the plaque forming units were counted and phage solutions were diluted to 10^6˜10^7 PFU/ml with the minimal medium for further use.
(§5) Phage Inactivation. […] The viral inactivation ability was determined by phage titer as stated above and calculated by log (N0/N), where N is the PFU of the phage solution after exposure to CPEs/OPEs; N0 represents the PFU of corresponding negative control (without CPEs, OPEs or UV-irradiation). […]

[4] = test system: MS2 and T4 bacteriophages; test: Antiviral activity, general statement; format: cell-based
S.aureus = test: Dead/live assay, biocidal activity against S.aureus; format: cell-based; details: for killing of S. aureus: under 365 nm radiation; for light activated death of S. aureus: light and dark conditions, 0.1 to 5 μg/mL, various time points (FIGS. 22-25)
Protocol: as §2, §3
Experiments similar to those described in Example 1 above were performed using TM and OPE1-DABCO against S. Aureus. FIG. 22 is a graph showing TM vs. 7×10^7/mL S. aureus under light and dark conditions at concentrations of 0.1 and 1 μg/mL and at various time points (5, 10, 15, 30, 45, and 60 minutes). FIG. 23 is a graph showing EO-OPE1-DABCO vs 6×10^7/mL S. aureus under light and dark conditions at different concentrations of 0.1, 1, and 5 μg/mL and at various time points. FIG. 24 is a graph showing EO-OPE1-DABCO vs S. Aureus under light and dark conditions at a concentration of 1 μg/mL and at various time points. FIG. 25 is a graph showing EO-OPE1-DABCO vs S. Aureus under light and dark conditions at different concentrations of 0.1 and 1 μg/mL and at various time points.

E.coli = test: Dead/live assay, biocidal activity against E.coli; format: cell-based; details: under 365 nm radiation
Protocol: (§6) Dead/live assays were performed to test the biocidal activity of EO-OPE-1(C3, A), EO-OPE-1 (C2, A), EO-OPE-1 (C3, S) and EO-OPE-1 (Th, C3, A) against E.coli, S.epidermis, and S.aureus. E.coli, S.epidermis, and S.aureus were cultured in 50 mL of Difco™ Nutrient broth (LOT 4057492, Becton, Dickinson and Company, Sparks, Md. 21152 USA), Difco™ Nutrient broth (LOT 4057492, Becton, Dickinson and Company, Sparks, Md. 21152 USA), and BBL™ Brain Heart Infusion (LOT 8263271, Becton, Dickinson and Company, Sparks, Md. 21152 USA), respectively, for 18 h at 37° C. under shaking. The bacteria were collected by centrifuging 50 mL of culture at 4,000 rpm in an Eppendorf centrifuge for 15 min at 4° C. […] Bacterial concentrations were measured and normalized using a disposal hemocytometer (INCYTO Co., Ltd), counts being 2.5˜3.0×10^7/mL. […]
(§7) Dead/live assays were carried out using two sets of stains: SYTO 9/Propidium iodide for E.coli and SYTO 24/Propidium iodide for S.epidermis and S.aureus. SYTO 9 and SYTO 24 are cell membrane permeant nucleic acid stains with green (˜498 nm for SYTO 9 and ˜515 nm for SYTO 24) fluorescence and used to stain both live and dead cells; Propidium iodide is a red-fluorescent nucleic acid stain that is membrane impermeable to viable cells but stains DNA or RNA of dead cells with comprised membranes and emits red (˜617 nm) fluorescence, indicating cell death. […]

S.epidermis = test: Dead/live assay, biocidal activity against S.epidermis; format: cell-based, Staphylococcus epidermis; details: under 365 nm radiation
Protocol: as §6, §7

MS2 phage = test: TEM of viral morphology damage, MS2; design: species or system Bacteriophage MS2; details: 50 ug/ml, dark and irradiated (FIGS. 34, 36, 38, 40)
Protocol: (§8) Transmission Electron Microscopy. High concentration of model viruses (˜10^11 PFU/ml for T4 phage, ˜10^12 PFU/ml for MS2 phage) and CPE/OPE (50 ug/ml) was used for TEM imaging (TEM images were generated in the UNM Electron Microscopy Shared Facility using a Hitachi H7500 transmission electron microscope.) Phage samples were prepared by adding 5 uL phage solutions onto carbon-coated copper grids (freshly cleaned by plasma cleaner) and standing for 2 minutes then rinsing with pure water. The negative stain, 2% aqueous solution of uranyl acetate, was adding onto the grids and standing for 2 minutes, the excess stain was removed by filter paper. The grid was dried in air.

bacteriophage T4 = test: Phage inactivation, phage titer (PFU), T4; format: cell-based; details: 10 ug/ml, in the dark, 1 hour
Protocol: as §4, §5

T4 phage = test: TEM of viral morphology damage, T4; design: species or system Bacteriophage T4; details: 50 ug/ml, dark and irradiated (FIGS. 33, 35, 37, 39)
Protocol: as §8

Row | SMILES | solubility in CH3OH (Solubility in solvents) | solubility in DMF and DMSO (Solubility in solvents) | solubility in water (Solubility in solvents) | absorbance intensity after 30 min relative to that measured at 1 min [1] | Fluorescence quantum yields(Φf)* ([1]; in water) | transient absorption (TA) intensity, comparison in words [2] | τ3/intensity in H2O ([2]; in H2O) | τ3/λmax(nm) in H2O ([2]; in H2O) | τ3/μs in H2O (triplet lifetime) ([2]; in H2O) | light-induced biocidal activity [3] | antiviral activity [4] | killing of S. aureus (S.aureus) | killing of E. coli (E.coli) | killing of S. epidermis (S.epidermis) | light activated death of S. aureus (S.aureus) | other results
1 | C[N+](C)(C)CCOc1ccc(C#Cc2ccc(C#Cc3ccc(OCC[N+](C)(C)C)cc3)cc2)cc1.[I-].[I-] [EO-OPE-1 (C2, A)] | moderately soluble | quite soluble | poorly soluble | the same | 0.59 ± 0.05 | comparable | 0.065 | 541 nm | 17.9 μs and 18.7 μs | dramatic light-induced biocidal activity | – | – | – | – | – | –
2 | C[N+](C)(C)CCCOc1ccc(C#Cc2ccc(C#Cc3ccc(OCCC[N+](C)(C)C)cc3)cc2)cc1.[I-].[I-] [EO-OPE-1 (C3, A)] | moderately soluble | quite soluble | poorly soluble | around 2 times | 0.52 ± 0.05 | comparable | 0.07 | 545 nm | 17.9 μs | dramatic light-induced biocidal activity | significant antiviral activity | – | – | – | – | inactivation of MS2 phage in the presence of UV irradiation (bacteriophage MS2): enhanced inactivation; Fluorescence quantum yields(Φf)* ([1]; in water; A)): 0.59; τ3/μs in H2O (triplet lifetime) ([2]; in H2O; A)): 5.2 μs
3 | O=S(=O)([O-])CCCOc1ccc(C#Cc2ccc(C#Cc3ccc(OCCCS(=O)(=O)[O-])cc3)cc2)cc1.[Na+].[Na+] [EO-OPE-1 (C3, S)] | moderately soluble | quite soluble | poorly soluble | 1.5 times | 0.46 and 0.50 ± 0.07 | comparable | 0.06 | 543 nm | – | dramatic light-induced biocidal activity; also recorded: relatively poor light-induced biocidal activity | – | kill | kill | kill | – | –
4 | C[N+](C)(C)CCCOc1ccc(C#Cc2ccc(C#Cc3ccc(OCCC[N+](C)(C)C)cc3)s2)cc1.[I-].[I-] [EO-OPE-1 (Th, C3, A)] | moderately soluble | quite soluble | poorly soluble | the same | 0.50 and 0.46 ± 0.02 | highest TA intensity | 0.15 | 510 nm | 7.2 μs | dramatic light-induced biocidal activity | significant antiviral activity | kill | kill | kill | – | morphology of treated MS2 phage by TEM (MS2 phage): Obvious morphology change; dark antiviral activity against T4 phage (bacteriophage T4): significant dark antiviral activity; log killing against S. aureus (S.aureus; concentration as low as 5 ng/mL, half hour irradiation): 5 log; morphology of treated T4 phage by TEM (T4 phage): serious damage
5 | CCCCCC[N+]12CC[N+](CCCOc3ccc(C#Cc4ccc(C#Cc5ccc(OCCC[N+]67CC[N+](CCCCCC)(CC6)CC7)cc5)cc4)cc3)(CC1)CC2.[Br-].[Br-].[Br-].[Br-] [EO-OPE-1-DABCO] | – | – | – | – | – | – | – | – | – | – | – | – | – | – | light activated death is clearly demonstrated | –
6 | COc1cc(C#Cc2ccc(C#Cc3ccc(OCCC[N+](C)(C)C)cc3)cc2)cc(OC)c1OC.[I-] [TM] | – | – | – | – | – | – | – | – | – | – | – | – | – | – | light activated death is clearly demonstrated | –

Source: patent US10092000B2, “Structure, synthesis, and applications for oligo phenylene ethynylenes (OPEs)” (STC.UNM, priority 2010, dated 2018)
